Results as given in ChEMBL document CHEMBL1155562, “Workup-dependent formation of 5-lipoxygenase inhibitory boswellic acid analogues” (J Nat Prod, 2000).

Each compound was assayed against T1, Polyunsaturated fatty acid 5-lipoxygenase (Homo sapiens, UniProt P09917) (assay: Inhibition of lipoxygenase 5 product formation from endogenous substrate in Calcium and ionophore-stimulated polymorphonuclear leukocyte).
T1 sequence (P09917 whole entry): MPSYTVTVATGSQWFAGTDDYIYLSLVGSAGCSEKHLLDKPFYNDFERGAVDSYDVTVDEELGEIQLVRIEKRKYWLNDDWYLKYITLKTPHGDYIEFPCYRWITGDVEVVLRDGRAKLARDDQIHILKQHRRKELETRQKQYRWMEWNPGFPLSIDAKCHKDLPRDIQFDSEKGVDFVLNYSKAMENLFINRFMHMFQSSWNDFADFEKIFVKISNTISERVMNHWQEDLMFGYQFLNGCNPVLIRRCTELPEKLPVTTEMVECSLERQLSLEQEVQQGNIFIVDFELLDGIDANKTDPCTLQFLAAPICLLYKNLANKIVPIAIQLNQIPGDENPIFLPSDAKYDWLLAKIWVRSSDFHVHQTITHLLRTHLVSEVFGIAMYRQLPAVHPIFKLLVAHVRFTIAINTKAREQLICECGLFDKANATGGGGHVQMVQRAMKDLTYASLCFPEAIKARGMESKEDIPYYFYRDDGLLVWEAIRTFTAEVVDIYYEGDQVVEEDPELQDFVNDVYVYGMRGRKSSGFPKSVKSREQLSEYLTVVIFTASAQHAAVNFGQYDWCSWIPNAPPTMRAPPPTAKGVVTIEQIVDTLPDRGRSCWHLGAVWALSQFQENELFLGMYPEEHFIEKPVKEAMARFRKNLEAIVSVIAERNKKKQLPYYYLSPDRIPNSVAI

SMILES	IC50
CC(=O)O[C@@H]1CC[C@]2(C)C3=CC=C4[C@@H]5[C@@H](C)[C@H](C)CC[C@]5(C)CC[C@@]4(C)[C@]3(C)CC[C@H]2[C@@]1(C)C(=O)O	750 nM
C[C@H]1[C@H](C)CC[C@]2(C)CC[C@]3(C)C(=CC(=O)[C@@H]4[C@@]5(C)CC[C@@H](O)[C@](C)(C(=O)O)[C@@H]5CC[C@]43C)[C@H]12 [11-KETO BOSWELLIC ACID]	3000 nM
CC(=O)O[C@@H]1CC[C@@]2(C)[C@@H](CC[C@]3(C)[C@@H]2C(=O)C=C2[C@@H]4[C@@H](C)[C@H](C)CC[C@]4(C)CC[C@]23C)[C@@]1(C)C(=O)O [AKBA]	2700 nM
